Assay results as given in publication PMC7101356, “Cross-site and cross-platform variability of automated patch clamp assessments of drug effects on human cardiac currents in recombinant cells” (Scientific Reports, 2020).
pIC50: −log10 of the molar value. Where two headings read alike, the source gives them in different places.

What was measured:
late hNav1.5 = target: T1, late hNav1.5 (Homo sapiens, UniProt Q14524); test: Automated patch clamp, late hNav1.5 current block (ATX-II activated); assay type: cell-based
T1 construct: expressed in transfected cells; host or cells: HEK293 or CHO, depending on site
Description: However, all external solutions contained 30 nM ATX-II in order to activate late current. Late current was measured at its maximum during the repolarizing ramp.
(§1) Concentration-response relationships for each test article were independently investigated, i.e., each cell received only one test article, typically evaluating multiple concentrations in a cumulative fashion (lowest to highest concentrations). However, some platforms tested only one concentration per well. Each concentration response was based on a minimum of four concentrations, with a minimum of three wells used for each concentration. In cases of high variability, more cells per concentration were recorded. Prior to drug addition, cells received an addition of vehicle to measure non-test article-related effects such as addition artifacts. At the end of the experiment, a supramaximal concentration of a known inhibitory reference compound was applied to assess leak current and appropriate responsiveness of the test system.
(§2) The steady state current at each concentration was used to determine the concentration-response relationships. Mean concentration-response data were fitted to a standard sigmoidal four-parameter logistic equation (GraphPad Prism 7; GraphPad Inc., La Jolla, CA) of the form: Y=Bottom+(Top−Bottom)/(1+10^∧(LogIC50−X)∗HillSlope) where Y is the current inhibition (in % of pre-drug control), X is the logarithm of drug concentration, and IC50 is the drug concentration producing half-maximal current inhibition. Curve fitting was performed using the following constraints: Top = 100%, Bottom = 0%, Hill Slope <2. No curve fitting was performed in cases with an obvious lack of a concentration-dependent current inhibition and/or small effect size (approximately ≤20%).

peak hNav1.5 = target: T2, peak hNav1.5 (Homo sapiens, UniProt Q14524); test: Automated patch clamp, peak hNav1.5 current block; assay type: cell-based; conditions: for IC50: read-out: log IC50, peak hNav1.5 inhibition (converted)
T2 construct: expressed in transfected cells; host or cells: HEK293 or CHO, depending on site
Description: Peak current was measured during the depolarizing step to −15 mV. Leak current was measured after applying a saturating concentration of a blocker such as lidocaine (2 mM) at the end of each experiment to completely block hNav1.5 current.
as §1, §2

[1] = based on CiPA evaluations; cited from earlier work
hCav1.2 = hCav1.2 (Homo sapiens, UniProt Q13936); test: Automated patch clamp, hCav1.2 current block
hERG = hERG (Homo sapiens, UniProt Q12809); test: Automated patch clamp, hERG current block (consensus step-ramp protocol); conditions: human, hERG K+ current inhibition, Mean, 1.00E-08 mol/L
[2] = site_platform s06_p4, 1.00E-08 mol/L
[3] = site_platform s06_p4, 3.00E-07 mol/L
[4] = site_platform s07_p6, 1.00E-08 mol/L
[5] = site_platform s07_p6, 3.00E-07 mol/L
[6] = site_platform s13_p2, 1.00E-08 mol/L
[7] = site_platform s13_p2, 3.00E-07 mol/L
[8] = site_platform s14_p1, 1.00E-08 mol/L
[9] = site_platform s14_p1, 3.00E-07 mol/L

T1 sequence (Q14524 whole entry): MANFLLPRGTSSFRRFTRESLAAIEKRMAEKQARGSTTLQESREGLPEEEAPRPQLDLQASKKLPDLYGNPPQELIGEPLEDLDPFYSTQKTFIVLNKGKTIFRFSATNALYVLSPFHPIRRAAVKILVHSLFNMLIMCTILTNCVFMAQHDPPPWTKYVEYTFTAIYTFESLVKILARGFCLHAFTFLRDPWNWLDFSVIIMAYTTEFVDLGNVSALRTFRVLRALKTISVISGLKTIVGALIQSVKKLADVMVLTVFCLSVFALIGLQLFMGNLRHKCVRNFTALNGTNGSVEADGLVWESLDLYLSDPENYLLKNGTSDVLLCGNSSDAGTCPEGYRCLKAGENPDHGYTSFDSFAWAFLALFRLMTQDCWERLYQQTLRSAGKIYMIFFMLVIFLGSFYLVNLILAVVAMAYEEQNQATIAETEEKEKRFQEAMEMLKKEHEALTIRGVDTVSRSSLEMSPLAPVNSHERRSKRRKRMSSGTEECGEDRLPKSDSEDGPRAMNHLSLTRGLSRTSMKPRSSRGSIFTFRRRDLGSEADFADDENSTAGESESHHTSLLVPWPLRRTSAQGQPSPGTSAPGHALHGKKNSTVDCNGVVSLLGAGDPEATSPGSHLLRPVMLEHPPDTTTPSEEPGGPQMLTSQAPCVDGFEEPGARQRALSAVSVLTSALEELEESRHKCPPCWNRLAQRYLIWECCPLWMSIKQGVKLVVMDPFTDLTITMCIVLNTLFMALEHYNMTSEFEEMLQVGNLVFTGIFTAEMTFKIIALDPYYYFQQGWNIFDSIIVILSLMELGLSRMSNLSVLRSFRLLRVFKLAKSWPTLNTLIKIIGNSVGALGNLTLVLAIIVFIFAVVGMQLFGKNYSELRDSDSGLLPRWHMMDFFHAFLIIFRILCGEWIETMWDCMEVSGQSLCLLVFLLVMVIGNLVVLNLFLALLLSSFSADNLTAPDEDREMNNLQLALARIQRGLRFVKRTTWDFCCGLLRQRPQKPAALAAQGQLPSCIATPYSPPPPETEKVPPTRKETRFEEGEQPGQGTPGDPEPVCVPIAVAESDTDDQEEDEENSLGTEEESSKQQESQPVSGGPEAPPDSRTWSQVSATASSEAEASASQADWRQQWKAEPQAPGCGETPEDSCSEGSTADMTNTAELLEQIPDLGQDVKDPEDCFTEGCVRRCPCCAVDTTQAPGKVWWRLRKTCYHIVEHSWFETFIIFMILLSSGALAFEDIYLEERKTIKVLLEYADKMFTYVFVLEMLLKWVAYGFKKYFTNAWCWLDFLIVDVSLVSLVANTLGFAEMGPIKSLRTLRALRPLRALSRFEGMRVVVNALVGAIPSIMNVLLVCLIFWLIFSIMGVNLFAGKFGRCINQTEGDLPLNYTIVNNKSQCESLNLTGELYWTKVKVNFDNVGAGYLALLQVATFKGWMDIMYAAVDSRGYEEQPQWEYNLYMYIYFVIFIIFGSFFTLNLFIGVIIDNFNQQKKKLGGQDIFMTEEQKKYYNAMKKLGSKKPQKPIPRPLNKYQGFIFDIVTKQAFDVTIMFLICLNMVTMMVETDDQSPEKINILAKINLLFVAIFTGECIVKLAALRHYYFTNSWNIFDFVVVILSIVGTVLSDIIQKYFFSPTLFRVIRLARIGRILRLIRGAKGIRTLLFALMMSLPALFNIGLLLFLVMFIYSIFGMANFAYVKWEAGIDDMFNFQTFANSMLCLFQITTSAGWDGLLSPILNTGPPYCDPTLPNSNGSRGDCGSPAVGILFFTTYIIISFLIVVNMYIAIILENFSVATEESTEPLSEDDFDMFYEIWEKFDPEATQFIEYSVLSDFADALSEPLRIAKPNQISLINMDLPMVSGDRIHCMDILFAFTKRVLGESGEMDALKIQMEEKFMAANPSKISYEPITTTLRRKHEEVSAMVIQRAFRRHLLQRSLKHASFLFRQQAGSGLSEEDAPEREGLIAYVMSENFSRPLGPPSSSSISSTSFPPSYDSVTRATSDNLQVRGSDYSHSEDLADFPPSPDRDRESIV
T2 sequence (Q14524 whole entry): as above

CC(C)COCC(CN(Cc1ccccc1)c1ccccc1)N1CCCC1 (stereo not drawn) [bep, bepridil]
nH, Hill slope, late hNav1.5 inhibition (late hNav1.5; site_platform s06_p4): 1.86
Late hNav1.5 Na+ current inhibition, Mean (late hNav1.5; [2]): -0.5%
Late hNav1.5 Na+ current inhibition, Mean (late hNav1.5; [3]): 43.7%
IC50 (late hNav1.5; site_platform s06_p4, read-out: log IC50, late hNav1.5 inhibition (converted)): 363 nM
log IC50, late hNav1.5 inhibition (late hNav1.5; site_platform s07_p6): no inh.
Late hNav1.5 Na+ current inhibition, Mean (late hNav1.5; [4]): 5.5%
Late hNav1.5 Na+ current inhibition, Mean (late hNav1.5; [5]): 12.3%
log IC50, late hNav1.5 inhibition (late hNav1.5; site_platform s13_p2): no inh.
Late hNav1.5 Na+ current inhibition, Mean (late hNav1.5; [6]): 24.3%
Late hNav1.5 Na+ current inhibition, Mean (late hNav1.5; [7]): 29.9%
log IC50, late hNav1.5 inhibition (late hNav1.5; site_platform s14_p1): no inh.
Late hNav1.5 Na+ current inhibition, Mean (late hNav1.5; [8]): 54.2%
Late hNav1.5 Na+ current inhibition, Mean (late hNav1.5; [9]): 10.2%
pIC50 (peak hNav1.5): 5.61
log IC50, peak hNav1.5 Na+ current inhibition (peak hNav1.5; site_platform s01_p1): no inh.
Peak hNav1.5 Na+ current inhibition, Mean (peak hNav1.5; site_platform s01_p1, 1.00E-08 mol/L): 27.2%
Peak hNav1.5 Na+ current inhibition, Mean (peak hNav1.5; site_platform s01_p1, 3.00E-07 mol/L): 49.4%
log IC50, peak hNav1.5 Na+ current inhibition (peak hNav1.5; site_platform s02_p2): no inh.
Peak hNav1.5 Na+ current inhibition, Mean (peak hNav1.5; site_platform s02_p2, 1.00E-08 mol/L): 0.5%
Peak hNav1.5 Na+ current inhibition, Mean (peak hNav1.5; site_platform s02_p2, 3.00E-07 mol/L): 5.1%
log IC50, peak hNav1.5 Na+ current inhibition (peak hNav1.5; site_platform s04_p3): no inh.
Peak hNav1.5 Na+ current inhibition, Mean (peak hNav1.5; site_platform s04_p3, 1.00E-08 mol/L): 7.9%
Peak hNav1.5 Na+ current inhibition, Mean (peak hNav1.5; site_platform s04_p3, 3.00E-07 mol/L): 13.7%
log IC50, peak hNav1.5 Na+ current inhibition (peak hNav1.5; site_platform s06_p4): no inh.
Peak hNav1.5 Na+ current inhibition, Mean (peak hNav1.5; [2]): -6.3%
Peak hNav1.5 Na+ current inhibition, Mean (peak hNav1.5; [3]): 0.9%
log IC50, peak hNav1.5 Na+ current inhibition (peak hNav1.5; site_platform s07_p6): no inh.
Peak hNav1.5 Na+ current inhibition, Mean (peak hNav1.5; [4]): -3.3%
Peak hNav1.5 Na+ current inhibition, Mean (peak hNav1.5; [5]): -0.6%
nH, Hill slope, peak hNav1.5 inhibition (peak hNav1.5; site_platform s10_p3): 0.57
Peak hNav1.5 Na+ current inhibition, Mean (peak hNav1.5; site_platform s10_p3, 1.00E-08 mol/L): 3.5%
Peak hNav1.5 Na+ current inhibition, Mean (peak hNav1.5; site_platform s10_p3, 3.00E-07 mol/L): 22.0%
IC50 (peak hNav1.5; site_platform s10_p3): 2690 nM
log IC50, peak hNav1.5 inhibition (peak hNav1.5; site_platform s11_p1): no inh.
Peak hNav1.5 Na+ current inhibition, Mean (peak hNav1.5; site_platform s11_p1, 1.00E-08 mol/L): 4.3%
Peak hNav1.5 Na+ current inhibition, Mean (peak hNav1.5; site_platform s11_p1, 3.00E-07 mol/L): 10.4%
log IC50, peak hNav1.5 inhibition (peak hNav1.5; site_platform s12_p2): no inh.
Peak hNav1.5 Na+ current inhibition, Mean (peak hNav1.5; site_platform s12_p2, 1.00E-08 mol/L): 0.0%
Peak hNav1.5 Na+ current inhibition, Mean (peak hNav1.5; site_platform s12_p2, 3.00E-07 mol/L): 0.0%
log IC50, peak hNav1.5 inhibition (peak hNav1.5; site_platform s13_p2): no inh.
Peak hNav1.5 Na+ current inhibition, Mean (peak hNav1.5; [6]): 3.2%
Peak hNav1.5 Na+ current inhibition, Mean (peak hNav1.5; [7]): 6.7%
nH, Hill slope, peak hNav1.5 inhibition (peak hNav1.5; site_platform s14_p1): 0.78
Peak hNav1.5 Na+ current inhibition, Mean (peak hNav1.5; [8]): 6.0%
Peak hNav1.5 Na+ current inhibition, Mean (peak hNav1.5; [9]): 17.8%
nH, Hill slope, peak hNav1.5 inhibition (peak hNav1.5; site_platform s15_p1): 0.68
Peak hNav1.5 Na+ current inhibition, Mean (peak hNav1.5; site_platform s15_p1, 1.00E-08 mol/L): 13.5%
Peak hNav1.5 Na+ current inhibition, Mean (peak hNav1.5; site_platform s15_p1, 3.00E-07 mol/L): 51.4%
IC50 (peak hNav1.5; site_platform s15_p1): 324 nM
nH, Hill slope, peak hNav1.5 inhibition (peak hNav1.5; site_platform s16_p3): 0.36
Peak hNav1.5 Na+ current inhibition, Mean (peak hNav1.5; site_platform s16_p3, 1.00E-08 mol/L): 8.1%
Peak hNav1.5 Na+ current inhibition, Mean (peak hNav1.5; site_platform s16_p3, 3.00E-07 mol/L): 26.6%
IC50 (peak hNav1.5; site_platform s16_p3): 4470 nM
nH, Hill slope, peak hNav1.5 inhibition (peak hNav1.5; site_platform s17_p1): 1.09
Peak hNav1.5 Na+ current inhibition, Mean (peak hNav1.5; site_platform s17_p1, 1.00E-08 mol/L): 2.7%
Peak hNav1.5 Na+ current inhibition, Mean (peak hNav1.5; site_platform s17_p1, 3.00E-07 mol/L): 30.0%
IC50 (peak hNav1.5; site_platform s17_p1): 676 nM
log IC50, peak hNav1.5 inhibition (peak hNav1.5; site_platform s18_p1): no inh.
Peak hNav1.5 Na+ current inhibition, Mean (peak hNav1.5; site_platform s18_p1, 1.00E-08 mol/L): 54.7%
Peak hNav1.5 Na+ current inhibition, Mean (peak hNav1.5; site_platform s18_p1, 3.00E-07 mol/L): 68.5%
nH, Hill slope, peak hNav1.5 inhibition (peak hNav1.5; site_platform s19_p3): 0.50
Peak hNav1.5 Na+ current inhibition, Mean (peak hNav1.5; site_platform s19_p3, 1.00E-08 mol/L): 2.2%
Peak hNav1.5 Na+ current inhibition, Mean (peak hNav1.5; site_platform s19_p3, 3.00E-07 mol/L): 17.3%
IC50 (peak hNav1.5; site_platform s19_p3): 6920 nM
TdP Risk Category [1]: High
Peak hCav1.2 Ca2+ current inhibition, Mean (hCav1.2; site s01_p1, 1.00E-08 mol/L): 5.6%
Peak hCav1.2 Ca2+ current inhibition, Mean (hCav1.2; site s01_p1, 3.00E-07 mol/L): 16.7%
nH, Hill slope (hCav1.2; site s02_p2, corrected for rundown): 0.64
Peak hCav1.2 Ca2+ current inhibition, Mean (hCav1.2; site s02_p2, corrected for rundown, 1.00E-08 mol/L): 4.4%
Peak hCav1.2 Ca2+ current inhibition, Mean (hCav1.2; site s02_p2, corrected for rundown, 3.00E-07 mol/L): 34.4%
Peak hCav1.2 Ca2+ current inhibition, Mean (hCav1.2; site s04_p3, 1.00E-08 mol/L): 12.6%
Peak hCav1.2 Ca2+ current inhibition, Mean (hCav1.2; site s04_p3, 3.00E-07 mol/L): 17.5%
Peak hCav1.2 Ca2+ current inhibition, Mean (hCav1.2; site s06_p4, 1.00E-08 mol/L): 5.9%
Peak hCav1.2 Ca2+ current inhibition, Mean (hCav1.2; site s06_p4, 3.00E-07 mol/L): 13.9%
Peak hCav1.2 Ca2+ current inhibition, Mean (hCav1.2; site s11_p1, 1.00E-08 mol/L): 13.2%
Peak hCav1.2 Ca2+ current inhibition, Mean (hCav1.2; site s11_p1, 3.00E-07 mol/L): 21.4%
Peak hCav1.2 Ca2+ current inhibition, Mean (hCav1.2; site s14_p1, 1.00E-08 mol/L): -0.1%
Peak hCav1.2 Ca2+ current inhibition, Mean (hCav1.2; site s14_p1, 3.00E-07 mol/L): 8.2%
nH, Hill slope (hCav1.2; site s16_p3): 0.51
Peak hCav1.2 Ca2+ current inhibition, Mean (hCav1.2; site s16_p3, 1.00E-08 mol/L): 8.6%
Peak hCav1.2 Ca2+ current inhibition, Mean (hCav1.2; site s16_p3, 3.00E-07 mol/L): 45.8%
Peak hCav1.2 Ca2+ current inhibition, Mean (hCav1.2; site s18_p1, 1.00E-08 mol/L): 28.2%
Peak hCav1.2 Ca2+ current inhibition, Mean (hCav1.2; site s18_p1, 3.00E-07 mol/L): 31.3%
inhibition at 1e-08 mol/L (hERG; site_platform s07_p5): 0.5%
inhibition at 4 min, 1e-08 mol/L (hERG; site_platform s10_p3): 1.5%
inhibition at 7 min, 1e-08 mol/L (hERG; site_platform s11_p1): 12%
inhibition at 7 min, 1e-08 mol/L (hERG; site_platform s14_p1): 41.9%
